Measurements published in ChEMBL document CHEMBL4316588, “Design, Synthesis, and Biological Evaluation of Novel DNA Gyrase-Inhibiting Spiropyrimidinetriones as Potent Antibiotics for Treatment of Infections Caused by Multidrug-Resistant Gram-Positive Bacteria” (J Med Chem, 2019).
In brackets after ≈: the same amount, converted by molar mass.

Tests used:
Staphylococcus aureus [1] = assay: Antibacterial activity against methicillin-sensitive Staphylococcus aureus after 18 to 20 hrs by CLSI-protocol based broth microdilution method; format: functional; details: Staphylococcus aureus; read-out: MIC
Staphylococcus aureus [2] = assay: Antibacterial activity against methicillin-resistant Staphylococcus aureus after 18 to 20 hrs by CLSI-protocol based broth microdilution method; format: functional
[3] = system: Staphylococcus epidermidis; assay: Antibacterial activity against methicillin-sensitive Staphylococcus epidermidis after 18 to 20 hrs by CLSI-protocol based broth microdilution method; format: functional
[4] = system: Staphylococcus epidermidis; assay: Antibacterial activity against methicillin-resistant Staphylococcus epidermidis after 18 to 20 hrs by CLSI-protocol based broth microdilution method; format: functional
Streptococcus pneumoniae = assay: Antibacterial activity against penicillin-resistant Streptococcus pneumoniae after 18 to 20 hrs by CLSI-protocol based broth microdilution method; format: functional
Streptococcus pyogenes = assay: Antibacterial activity against Streptococcus pyogenes after 18 to 20 hrs by CLSI-protocol based broth microdilution method; format: functional
[5] = target: DNA topoisomerase 2-alpha (Homo sapiens, UniProt P11388); assay: Inhibition of human topoisomerase-2alpha using catenated DNA as substrate after 30 mins by ethidium bromide-based gel electrophoresis
DNA gyrase = DNA gyrase (Staphylococcus aureus, UniProt P0A0K8+P20831)
Description: Inhibition of Staphylococcus aureus DNA gyrase supercoiling activity using relaxed pHOT-1 DNA as substrate after 60 mins by ethidium bromide-based gel electrophoresis

Cytochrome P450 3A4 [6] = target: T1, Cytochrome P450 3A4 (Homo sapiens, UniProt P08684); assay: Inhibition of CYP3A4 in human liver microsomes using midazolam as substrate preincubated for 10 mins followed by NADPH addition and measured for 15 mins by LC-MS/MS analysis; format: ADME
Neisseria gonorrhoeae = assay: Antibacterial activity against Neisseria gonorrhoeae after 18 to 20 hrs by CLSI-protocol based agar microdilution method; format: functional
[7] = AUCt in CD1 mouse at 10 mg/kg, po by LC-MS/MS analysis; format: ADME, organism-based; details: in vivo
[8] = MRT in CD1 mouse at 10 mg/kg, po by LC-MS/MS analysis; format: ADME, organism-based; details: in vivo
[9] = Cmax in CD1 mouse at 10 mg/kg, po by LC-MS/MS analysis; format: ADME, organism-based; set-up: dose 10 mg/kg, route oral; details: in vivo
[10] = Tmax in CD1 mouse at 10 mg/kg, po by LC-MS/MS analysis; format: ADME, organism-based; details: in vivo
[11] = Elimination half life in CD1 mouse at 10 mg/kg, po by LC-MS/MS analysis; format: ADME, organism-based; details: in vivo, read-out: beta t1/2 (converted)
[12] = AUCt in Sprague-Dawley rat at 10 mg/kg, iv by LC-MS/MS analysis; format: ADME, organism-based; details: in vivo
[13] = AUCt in Sprague-Dawley rat at 10 mg/kg, po by LC-MS/MS analysis; format: ADME, organism-based; details: in vivo
[14] = AUCt in Sprague-Dawley rat at 100 mg/kg, po by LC-MS/MS analysis; format: ADME, organism-based; details: in vivo
[15] = Cmax in Sprague-Dawley rat at 10 mg/kg, po by LC-MS/MS analysis; format: ADME, organism-based; set-up: dose 10 mg/kg, route oral; details: in vivo
[16] = Cmax in Sprague-Dawley rat at 100 mg/kg, po by LC-MS/MS analysis; format: ADME, organism-based; set-up: dose 100 mg/kg, route oral; details: in vivo
[17] = Elimination half life in Sprague-Dawley rat at 10 mg/kg, iv by LC-MS/MS analysis; format: ADME, organism-based; details: in vivo, read-out: beta t1/2 (converted)
[18] = Elimination half life in Sprague-Dawley rat at 10 mg/kg, po by LC-MS/MS analysis; format: ADME, organism-based; details: in vivo, read-out: beta t1/2 (converted)
[19] = Elimination half life in Sprague-Dawley rat at 100 mg/kg, po by LC-MS/MS analysis; format: ADME, organism-based; details: in vivo, read-out: beta t1/2 (converted)
[20] = Clearance in Sprague-Dawley rat at 10 mg/kg, iv by LC-MS/MS analysis; format: ADME, organism-based; details: in vivo
[21] = Volume of distribution at steady state in Sprague-Dawley rat at 10 mg/kg, iv by LC-MS/MS analysis; format: ADME, organism-based; details: in vivo, read-out: Vdss
[22] = Oral bioavailability in Sprague-Dawley rat at 10 mg/kg by LC-MS/MS analysis; format: ADME, organism-based; details: in vivo
[23] = Oral bioavailability in Sprague-Dawley rat at 100 mg/kg by LC-MS/MS analysis; format: ADME, organism-based; details: in vivo
[24] = AUCt in Beagle dog at 2.5 mg/kg, iv by LC-MS/MS analysis; format: ADME, organism-based, Canis lupus familiaris; details: in vivo
[25] = AUCt in Beagle dog at 5 mg/kg, po by LC-MS/MS analysis; format: ADME, organism-based, Canis lupus familiaris; details: in vivo
[26] = Cmax in Beagle dog at 5 mg/kg, po by LC-MS/MS analysis; format: ADME, organism-based, Canis lupus familiaris; set-up: dose 5 mg/kg, route oral; details: in vivo
[27] = Elimination half life in Beagle dog at 2.5 mg/kg, iv by LC-MS/MS analysis; format: ADME, organism-based, Canis lupus familiaris; details: in vivo, read-out: beta t1/2 (converted)
[28] = Elimination half life in Beagle dog at 5 mg/kg, po by LC-MS/MS analysis; format: ADME, organism-based, Canis lupus familiaris; details: in vivo, read-out: beta t1/2 (converted)
[29] = Clearance in Beagle dog at 2.5 mg/kg, iv by LC-MS/MS analysis; format: ADME, organism-based, Canis lupus familiaris; details: in vivo
[30] = Volume of distribution at steady state in Beagle dog at 2.5 mg/kg, iv by LC-MS/MS analysis; format: ADME, organism-based, Canis lupus familiaris; details: in vivo, read-out: Vdss
[31] = Oral bioavailability in Beagle dog at 5 mg/kg by LC-MS/MS analysis; format: ADME, organism-based, Canis lupus familiaris; details: in vivo
[32] = Solubility of the compound in pH 6.8 intestinal juice incubated at 37 degC for 24 hrs by LC/MS/MS analysis; format: physicochemical
[33] = Solubility of the compound in pH 1.2 gastric juice incubated at 37 degC for 24 hrs by LC/MS/MS analysis; format: physicochemical
[34] = Solubility of the compound in water incubated at 37 degC for 24 hrs by LC/MS/MS analysis; format: physicochemical
[35] = target: Voltage-gated inwardly rectifying potassium channel KCNH2 (Homo sapiens, UniProt Q12809); assay: Inhibition of human ERG expressed in CHO cells in at -80 mV holding potential by automated Qpatch clamp assay; format: cell-based
Cytochrome P450 1A2 = target: T2, Cytochrome P450 1A2 (Homo sapiens, UniProt P05177); assay: Inhibition of CYP1A2 in human liver microsomes using phenacetin as substrate preincubated for 10 mins followed by NADPH addition and measured for 15 mins by LC-MS/MS analysis; format: ADME
T2 sequence (P05177 whole entry): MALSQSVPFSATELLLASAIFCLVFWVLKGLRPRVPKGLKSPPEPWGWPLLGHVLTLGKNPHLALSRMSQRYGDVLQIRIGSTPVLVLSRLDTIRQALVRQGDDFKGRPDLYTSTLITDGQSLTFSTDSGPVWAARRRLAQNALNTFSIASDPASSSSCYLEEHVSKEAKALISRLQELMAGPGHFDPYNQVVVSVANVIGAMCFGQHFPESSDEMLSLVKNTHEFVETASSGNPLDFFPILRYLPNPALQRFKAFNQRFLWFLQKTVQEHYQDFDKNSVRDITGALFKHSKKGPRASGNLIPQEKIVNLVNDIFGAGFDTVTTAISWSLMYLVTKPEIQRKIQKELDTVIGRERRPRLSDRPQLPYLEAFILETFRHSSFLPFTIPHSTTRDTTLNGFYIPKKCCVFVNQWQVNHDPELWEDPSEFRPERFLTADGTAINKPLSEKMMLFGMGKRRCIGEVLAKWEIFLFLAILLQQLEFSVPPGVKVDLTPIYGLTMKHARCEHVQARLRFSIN

Cytochrome P450 2C19 = Cytochrome P450 2C19 (Homo sapiens, UniProt P33261); assay: Inhibition of CYP2C19 in human liver microsomes using mephenytoin as substrate preincubated for 10 mins followed by NADPH addition and measured for 15 mins by LC-MS/MS analysis; format: ADME
Cytochrome P450 2C9 = Cytochrome P450 2C9 (Homo sapiens, UniProt P11712); assay: Inhibition of CYP2C9 in human liver microsomes using tolbutamide as substrate preincubated for 10 mins followed by NADPH addition and measured for 15 mins by LC-MS/MS analysis; format: ADME
Cytochrome P450 2D6 = Cytochrome P450 2D6 (Homo sapiens, UniProt P10635); assay: Inhibition of CYP2D6 in human liver microsomes using dextromethorphan as substrate preincubated for 10 mins followed by NADPH addition and measured for 15 mins by LC-MS/MS analysis; format: ADME
Cytochrome P450 3A4 [36] = target: T1, Cytochrome P450 3A4; assay: Inhibition of CYP3A4 in human liver microsomes using testosterone as substrate preincubated for 10 mins followed by NADPH addition and measured for 15 mins by LC-MS/MS analysis; format: ADME
Staphylococcus aureus [37] = assay: Antibacterial activity against methicillin-sensitive Staphylococcus aureus infected in Kunming mouse dosed subcutaneously at 0.5 and 4.0 hrs postinfection and measured at 7 to 14 days post treatment by Bliss method; format: functional; details: sc
Staphylococcus aureus [38] = assay: Antibacterial activity against methicillin-resistant Staphylococcus aureus infected in Kunming mouse dosed subcutaneously at 0.5 and 4.0 hrs postinfection and measured at 7 to 14 days post treatment by Bliss method; format: functional; details: sc
[39] = Streptococcus pyogenes, read-out: MIC

Chain of DNA topoisomerase 2-alpha (P11388 whole entry): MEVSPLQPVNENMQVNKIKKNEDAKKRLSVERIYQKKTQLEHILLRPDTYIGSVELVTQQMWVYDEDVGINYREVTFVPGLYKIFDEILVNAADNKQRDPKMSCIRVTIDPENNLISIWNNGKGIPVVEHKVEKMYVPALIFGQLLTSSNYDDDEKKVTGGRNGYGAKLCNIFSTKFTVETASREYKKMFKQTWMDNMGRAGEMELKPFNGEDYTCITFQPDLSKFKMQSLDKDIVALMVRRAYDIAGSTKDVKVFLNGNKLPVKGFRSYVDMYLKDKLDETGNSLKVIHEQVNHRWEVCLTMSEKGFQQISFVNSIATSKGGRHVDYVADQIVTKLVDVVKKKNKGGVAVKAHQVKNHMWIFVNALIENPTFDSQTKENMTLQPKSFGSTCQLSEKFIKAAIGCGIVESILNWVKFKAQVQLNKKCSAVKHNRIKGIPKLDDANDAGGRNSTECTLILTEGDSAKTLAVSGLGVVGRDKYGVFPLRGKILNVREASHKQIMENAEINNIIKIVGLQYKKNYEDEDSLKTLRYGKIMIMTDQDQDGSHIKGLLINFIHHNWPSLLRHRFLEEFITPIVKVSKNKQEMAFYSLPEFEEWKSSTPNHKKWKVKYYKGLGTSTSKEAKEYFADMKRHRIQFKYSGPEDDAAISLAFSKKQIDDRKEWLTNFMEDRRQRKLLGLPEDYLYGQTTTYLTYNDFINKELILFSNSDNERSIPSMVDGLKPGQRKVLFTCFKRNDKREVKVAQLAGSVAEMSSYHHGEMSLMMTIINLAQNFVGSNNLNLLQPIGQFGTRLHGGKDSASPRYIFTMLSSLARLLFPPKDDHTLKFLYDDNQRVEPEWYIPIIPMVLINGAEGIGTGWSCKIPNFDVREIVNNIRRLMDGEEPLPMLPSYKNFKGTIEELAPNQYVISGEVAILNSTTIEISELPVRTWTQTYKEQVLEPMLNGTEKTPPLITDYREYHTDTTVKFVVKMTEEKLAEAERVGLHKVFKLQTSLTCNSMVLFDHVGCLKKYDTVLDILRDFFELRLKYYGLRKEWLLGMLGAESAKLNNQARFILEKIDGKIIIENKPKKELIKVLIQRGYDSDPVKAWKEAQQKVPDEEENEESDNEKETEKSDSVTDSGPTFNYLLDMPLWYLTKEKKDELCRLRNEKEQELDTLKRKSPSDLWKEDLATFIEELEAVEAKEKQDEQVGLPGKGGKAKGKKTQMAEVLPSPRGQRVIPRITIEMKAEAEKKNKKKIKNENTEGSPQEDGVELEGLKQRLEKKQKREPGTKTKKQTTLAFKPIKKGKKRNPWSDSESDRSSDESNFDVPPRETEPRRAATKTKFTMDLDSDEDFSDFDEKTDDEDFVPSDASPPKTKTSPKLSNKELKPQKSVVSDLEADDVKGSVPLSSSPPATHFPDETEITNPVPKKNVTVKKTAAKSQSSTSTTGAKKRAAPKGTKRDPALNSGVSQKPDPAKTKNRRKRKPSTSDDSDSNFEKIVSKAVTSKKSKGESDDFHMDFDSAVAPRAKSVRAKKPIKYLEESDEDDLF
Chain of DNA gyrase (P0A0K8 whole entry): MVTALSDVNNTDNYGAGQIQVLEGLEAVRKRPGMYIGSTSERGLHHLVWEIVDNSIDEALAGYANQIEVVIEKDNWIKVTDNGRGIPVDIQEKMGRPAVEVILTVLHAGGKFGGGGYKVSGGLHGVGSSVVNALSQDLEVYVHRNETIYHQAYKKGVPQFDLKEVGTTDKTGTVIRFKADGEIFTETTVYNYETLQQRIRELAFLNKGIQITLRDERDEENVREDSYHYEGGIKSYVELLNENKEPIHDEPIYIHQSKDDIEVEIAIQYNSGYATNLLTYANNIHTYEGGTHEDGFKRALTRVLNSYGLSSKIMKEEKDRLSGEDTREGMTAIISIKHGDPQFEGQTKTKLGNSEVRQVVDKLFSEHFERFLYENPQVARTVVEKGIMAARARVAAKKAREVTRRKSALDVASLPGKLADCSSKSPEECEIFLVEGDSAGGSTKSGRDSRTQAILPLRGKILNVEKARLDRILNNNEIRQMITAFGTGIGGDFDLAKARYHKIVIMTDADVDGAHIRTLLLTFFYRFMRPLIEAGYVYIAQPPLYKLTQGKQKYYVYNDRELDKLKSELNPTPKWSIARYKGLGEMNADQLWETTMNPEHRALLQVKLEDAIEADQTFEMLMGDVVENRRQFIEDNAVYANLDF
Chain of DNA gyrase (P20831 whole entry): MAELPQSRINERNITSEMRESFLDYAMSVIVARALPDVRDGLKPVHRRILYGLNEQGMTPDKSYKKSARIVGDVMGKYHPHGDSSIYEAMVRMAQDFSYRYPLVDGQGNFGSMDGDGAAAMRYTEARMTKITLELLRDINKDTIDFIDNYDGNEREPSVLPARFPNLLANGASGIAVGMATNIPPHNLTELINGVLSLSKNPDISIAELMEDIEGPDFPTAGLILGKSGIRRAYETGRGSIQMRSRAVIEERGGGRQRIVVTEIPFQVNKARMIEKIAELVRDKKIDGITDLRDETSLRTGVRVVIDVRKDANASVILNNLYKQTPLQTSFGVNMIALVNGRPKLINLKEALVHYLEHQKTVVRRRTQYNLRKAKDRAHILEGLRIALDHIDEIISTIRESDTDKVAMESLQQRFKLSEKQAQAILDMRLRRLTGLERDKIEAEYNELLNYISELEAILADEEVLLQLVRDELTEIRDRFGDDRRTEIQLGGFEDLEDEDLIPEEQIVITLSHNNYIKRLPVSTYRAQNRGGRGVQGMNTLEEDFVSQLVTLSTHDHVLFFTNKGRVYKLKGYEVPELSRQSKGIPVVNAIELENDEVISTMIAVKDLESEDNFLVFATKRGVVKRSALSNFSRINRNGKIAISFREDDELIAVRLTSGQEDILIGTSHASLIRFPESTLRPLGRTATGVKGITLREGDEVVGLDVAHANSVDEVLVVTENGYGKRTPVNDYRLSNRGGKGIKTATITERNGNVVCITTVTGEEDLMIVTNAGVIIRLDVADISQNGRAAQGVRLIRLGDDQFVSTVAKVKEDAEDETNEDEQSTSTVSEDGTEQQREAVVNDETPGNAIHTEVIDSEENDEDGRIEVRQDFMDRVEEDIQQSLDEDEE
T1 sequence (P08684 whole entry): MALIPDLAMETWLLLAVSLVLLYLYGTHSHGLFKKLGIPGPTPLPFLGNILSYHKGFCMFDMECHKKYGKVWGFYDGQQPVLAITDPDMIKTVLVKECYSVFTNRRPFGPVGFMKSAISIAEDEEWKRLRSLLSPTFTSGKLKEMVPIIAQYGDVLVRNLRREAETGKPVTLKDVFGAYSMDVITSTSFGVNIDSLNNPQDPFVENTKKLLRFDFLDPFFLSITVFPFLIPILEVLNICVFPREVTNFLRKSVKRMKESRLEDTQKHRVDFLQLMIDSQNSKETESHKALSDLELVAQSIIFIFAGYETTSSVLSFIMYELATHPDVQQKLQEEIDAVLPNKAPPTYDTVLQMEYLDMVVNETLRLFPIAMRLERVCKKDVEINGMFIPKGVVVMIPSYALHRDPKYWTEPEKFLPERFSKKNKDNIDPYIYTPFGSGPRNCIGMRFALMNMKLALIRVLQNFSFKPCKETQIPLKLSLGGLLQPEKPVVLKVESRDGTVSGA
Chain of Voltage-gated inwardly rectifying potassium channel KCNH2 (Q12809 whole entry): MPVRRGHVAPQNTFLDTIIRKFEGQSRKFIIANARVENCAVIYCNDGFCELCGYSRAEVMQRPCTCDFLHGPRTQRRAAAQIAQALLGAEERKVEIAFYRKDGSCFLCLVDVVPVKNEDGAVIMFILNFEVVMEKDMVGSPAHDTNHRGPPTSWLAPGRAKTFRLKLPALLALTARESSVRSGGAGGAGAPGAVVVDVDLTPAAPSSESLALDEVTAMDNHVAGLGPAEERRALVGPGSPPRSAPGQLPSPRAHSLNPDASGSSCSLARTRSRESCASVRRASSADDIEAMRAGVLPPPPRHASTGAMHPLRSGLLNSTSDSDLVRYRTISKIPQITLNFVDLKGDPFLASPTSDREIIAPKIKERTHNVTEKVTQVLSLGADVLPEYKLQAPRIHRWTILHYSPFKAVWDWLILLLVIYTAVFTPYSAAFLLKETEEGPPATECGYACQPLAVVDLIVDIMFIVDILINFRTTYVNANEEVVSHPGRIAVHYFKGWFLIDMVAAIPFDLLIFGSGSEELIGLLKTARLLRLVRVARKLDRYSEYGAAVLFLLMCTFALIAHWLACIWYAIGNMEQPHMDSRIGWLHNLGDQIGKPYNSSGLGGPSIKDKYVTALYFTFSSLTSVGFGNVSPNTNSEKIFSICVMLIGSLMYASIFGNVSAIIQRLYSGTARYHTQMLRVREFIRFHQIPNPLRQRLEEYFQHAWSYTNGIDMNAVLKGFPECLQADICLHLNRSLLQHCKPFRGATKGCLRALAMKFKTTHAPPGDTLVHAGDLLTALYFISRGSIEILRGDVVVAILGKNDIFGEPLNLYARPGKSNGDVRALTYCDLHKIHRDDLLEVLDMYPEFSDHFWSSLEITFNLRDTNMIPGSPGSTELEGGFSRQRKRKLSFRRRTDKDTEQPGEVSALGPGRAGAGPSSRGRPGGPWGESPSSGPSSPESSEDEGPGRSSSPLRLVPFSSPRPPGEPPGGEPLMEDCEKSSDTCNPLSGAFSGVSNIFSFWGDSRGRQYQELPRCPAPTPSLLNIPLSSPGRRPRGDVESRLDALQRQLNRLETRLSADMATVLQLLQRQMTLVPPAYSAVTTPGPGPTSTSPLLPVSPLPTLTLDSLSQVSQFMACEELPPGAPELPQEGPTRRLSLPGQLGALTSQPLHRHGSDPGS

C[C@@H]1CN2c3c(cc4c(N5CC6(CCC6)OC5=O)noc4c3F)CC3(C(=O)NC(=O)NC3=O)[C@H]2[C@H](C)O1
MIC (Staphylococcus aureus [1]): 0.125 to 0.25 µg/mL (≈ 0.243 to 0.487 µM)
MIC (Staphylococcus aureus [2]): 0.06 to 1 µg/mL (≈ 0.117 to 1.95 µM)
MIC [3]: 0.06 to 0.25 µg/mL (≈ 0.117 to 0.487 µM)
MIC [4]: 0.03 to 0.25 µg/mL (≈ 0.0584 to 0.487 µM)
MIC (Streptococcus pneumoniae): 0.25 to 1 µg/mL (≈ 0.487 to 1.95 µM)
MIC (Streptococcus pyogenes; [39]): 0.25 to 0.5 µg/mL (≈ 0.487 to 0.974 µM)
IC50 [5]: > 200 µM
IC50 (DNA gyrase): 15.6 µM

C[C@@H]1CN2c3c(cc4c(N5CC6(CC6)OC5=O)noc4c3F)CC3(C(=O)NC(=O)NC3=O)[C@H]2[C@H](C)O1
IC50 (Cytochrome P450 3A4 [6]): > 25 µM
MIC (Staphylococcus aureus [1]): ≤ 0.03 µg/mL
MIC (Streptococcus pyogenes): <0.03 µg/mL
MIC50 (Neisseria gonorrhoeae): 0.06 µg/mL (≈ 0.12 µM)
MIC90 (Neisseria gonorrhoeae): 0.125 µg/mL (≈ 0.25 µM)
AUC(0-t) [7]: 24200 ng·h/mL
MRT [8]: 8.94 h
Cmax [9]: 2580 ng/mL
Tmax [10]: 2.67 h
half-life [11]: 6.2 h
AUC(0-t) [12]: 104000 ng·h/mL
AUC(0-t) [13]: 23600 ng·h/mL
AUC(0-t) [14]: 478000 ng·h/mL
Cmax [15]: 2260 ng/mL
Cmax [16]: 35400 ng/mL
half-life [17]: 3.82 h
half-life [18]: 3.71 h
half-life [19]: 5.58 h
clearance [20]: 1.57 mL/min/kg
Vd [21]: 0.482 L/kg
bioavailability [22]: 22.6%
bioavailability [23]: 45.8%
AUC(0-t) [24]: 9100 ng·h/mL
AUC(0-t) [25]: 17500 ng·h/mL
Cmax [26]: 2860 ng/mL
half-life [27]: 3.49 h
half-life [28]: 3.65 h
clearance [29]: 4.91 mL/min/kg
Vd [30]: 1 L/kg
bioavailability [31]: 96.6%
solubility at 24 h [32]: 204 µM (≈ 102 µg/mL)
solubility at 24 h [33]: 151 µM (≈ 75.4 µg/mL)
solubility at 24 h [34]: 277 µM (≈ 138 µg/mL)
IC50 [35]: > 40 µM
IC50 (Cytochrome P450 1A2): 13 µM
IC50 (Cytochrome P450 2C19): > 25 µM
IC50 (Cytochrome P450 2C9): > 25 µM
IC50 (Cytochrome P450 2D6): > 25 µM
IC50 (Cytochrome P450 3A4 [36]): > 25 µM
IC50 [5]: > 200 µM
ED50 (Staphylococcus aureus [37]): 8.37 mg/kg
ED50 (Staphylococcus aureus [38]): 3.87 mg/kg
IC50 (DNA gyrase): 7.8 µM

C[C@@H]1CN2c3c(cc4c(N5C[C@@H](C)SC5=O)noc4c3F)CC3(C(=O)NC(=O)NC3=O)[C@H]2[C@H](C)O1
MIC (Staphylococcus aureus [2]): 0.03 to 0.25 µg/mL (≈ 0.0596 to 0.497 µM)
MIC [4]: 0.03 to 0.06 µg/mL (≈ 0.0596 to 0.119 µM)
MIC (Streptococcus pneumoniae): ≤ 0.03 µg/mL
MIC (Streptococcus pyogenes; [39]): < 0.03 µg/mL
MIC50 (Neisseria gonorrhoeae): 0.03 µg/mL (≈ 0.0596 µM)
MIC90 (Neisseria gonorrhoeae): 0.125 µg/mL (≈ 0.248 µM)
Tmax [10]: 0.58 h
IC50 [35]: > 40 µM
IC50 [5]: > 200 µM
IC50 (DNA gyrase): 15.3 µM
